This note sets out measurements from patent publication US7592353B2, “Substituted 3-amino-thieno[2,3-b]pyridine-2-carboxylic acid amide compounds and processes for preparing and their uses” (Boehringer Ingelheim International GmbH, priority 2006, dated 2009).

Series [1] is described as follows: Rat oral exposure (plasma exposure upon oral administration). The series is classed as in vivo. The settings on record: for concentration at 2 h / concentration at 6 h / concentration at 10 h: plasma, rat, oral, 10 mg/kg; for concentration at 2 h: read-out: Rat oral exposure (μM) @ 10 mg/kg dose 2h; for concentration at 6 h: read-out: Rat oral exposure (μM) @ 10 mg/kg dose 6h; for concentration at 10 h: read-out: Rat oral exposure (μM) @ 10 mg/kg dose 10h.

Series [2] deals with established type II collagen arthritis in rats. The experiment in a line: Rat CIA model (7 day rat established type II collagen arthritis). The class given is in vivo. From the text: Effects of Compounds in 7 Day Rat Established Type II Collagen Arthritis
Purpose: To determine the dose responsive efficacy of compounds administered by oral gavage dosing bid in inhibiting the inflammation, cartilage destruction and bone resorption of established type II collagen arthritis in rats. The terminal pharmacokinetic component is included.
Animals: 36 (Order 42) Female Lewis rats (Harlan, 1173000), weighing 125-150 g on arrival. Extras are used because animals with arthritis are selected and there is not 100% incidence of disease in this model in the short time frame for enrollment (inject 42 with collagen to get […] solid responders on days 10, 11 for 4 groups of 8. Four rats are used to serve as normal controls.
Materials: Agents or drugs in vehicle (Cremaphor), Type II collagen, Freund's incomplete adjuvant.
General Study Design: Animals (8/group for arthritis, 4/group for normal control), housed 4/cage, are acclimated for 4-8 days.
Acclimated animals are anesthetized with Isoflurane and given collagen injections (day 0). […]
Statistical analysis of body/paw weights and paw AUC and histopathology parameters are evaluated using a one-way analysis of variance (ANOVA). […]
Percent inhibition of paw weight and AUC is calculated using the following formula: % Inhibition=A−B/A×100 A=Mean Disease Control−Mean Normal B=Mean Treated−Mean Normal

The target of a further series is T1, human IKKβ (Homo sapiens, UniProt O14920).
T1 construct: FLAG (N)
T1 sequence (O14920 1-756): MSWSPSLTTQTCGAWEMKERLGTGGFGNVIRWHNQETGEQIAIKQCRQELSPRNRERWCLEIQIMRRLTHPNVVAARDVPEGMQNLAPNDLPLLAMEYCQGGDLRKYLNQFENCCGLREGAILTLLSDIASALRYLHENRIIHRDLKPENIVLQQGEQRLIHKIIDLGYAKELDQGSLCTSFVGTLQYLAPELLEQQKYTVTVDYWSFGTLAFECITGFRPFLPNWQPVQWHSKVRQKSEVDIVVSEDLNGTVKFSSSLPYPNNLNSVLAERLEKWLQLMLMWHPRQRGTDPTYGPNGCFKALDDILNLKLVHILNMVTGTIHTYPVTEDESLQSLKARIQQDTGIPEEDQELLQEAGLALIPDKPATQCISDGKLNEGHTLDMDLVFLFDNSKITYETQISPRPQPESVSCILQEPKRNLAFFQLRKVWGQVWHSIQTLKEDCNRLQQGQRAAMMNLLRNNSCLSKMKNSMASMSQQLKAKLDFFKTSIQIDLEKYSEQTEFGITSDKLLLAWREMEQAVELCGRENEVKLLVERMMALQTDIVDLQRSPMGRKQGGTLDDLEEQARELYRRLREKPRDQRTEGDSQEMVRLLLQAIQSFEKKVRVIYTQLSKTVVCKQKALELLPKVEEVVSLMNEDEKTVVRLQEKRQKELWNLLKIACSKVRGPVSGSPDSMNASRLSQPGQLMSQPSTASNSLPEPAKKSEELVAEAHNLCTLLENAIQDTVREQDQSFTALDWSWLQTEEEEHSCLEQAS
Nature of the series: Molecular assay IKKb: phosphorylation of IκBα substrate by IKKβ. The class given is biochemical. On the procedure: The inhibition of IKKα and IKKβ by the compounds of the present invention can be determined with the following assay that measures the phosphorylation of the IκBα substrate by the respective kinases. The enzymes used in the assay were N-terminally flag-tagged versions of the human IKKβ or IKKα and the substrate was a GST fusion protein with IκBα (amino acids 1-54).
The reaction mixtures (60 μl) contained 20 mM HEPES pH 7.5, 10 mM MgCl2, 2 mM MnCl2, 100 mM NaCl, 100 μM Na3VO4, 20 mM β-glycerophosphate, 1 mM DTT, 2% DMSO, 250 nM ATP, 0.4 nM [^33P]ATP (specific activity, 3000 Ci/mmol), IκBα substrate, IKK enzyme and test compound. The reaction mixtures contained either 3.6 μg/ml IKKα and 245 μg/ml IκBα or 0.9 μg/ml IKKβ and 53 μg/ml IκBα.
Reactions were initiated by adding a solution of IκBα substrate and ATP to polypropylene plates containing IKK enzyme that was pre-incubated for 5 minutes with test compound. Then the reaction mixtures were incubated for 1 hour at 25° C., placed on ice and quenched by the addition of 150 μl 10% trichloroacetic acid and 5% disodium pyrophosphate. After mixing, the entire contents of the quenched reaction mixtures were transferred to a pre-wetted Packard UniFilter filtration plate, aspirated and washed 6 times with 250 μl of ddH2O using the Packard Filtermate Harvester. Filtration plates were then air dried, supplemented with 40 μl of Microscint 20 scintillation fluid and the ^33P-labeled reaction products were quantified using the Packard TopCount scintillation counter.
Compounds were tested in three-fold serial dilutions and inhibitor concentrations to achieve 50% inhibition of enzyme activity (i.e., IC50) were derived from dose-response curves using SAS software (SAS Institute, Cary N.C.). A non-linear regression analysis based on the Hill equation was applied to the percent inhibition versus concentration data. In all cases, compound concentrations were verified by HPLC.

Series [3] has as its system ICAM-1 Expression on HeLa Cells. Nature of the series: Cell assay HeLa: ELISA of TNFα-stimulated ICAM-1 expression on HeLa cells. The class given is cell-based. The settings on record: for IC50: Homo sapiens, HeLa cells, TNFα stimulation, ICAM-1 expression; for cellular potency relative to the —CF3 group of compound 101: comparison in words, Table II. As to the method: HeLa cells are seeded on 96 well tissue culture treated plates (Costar) in complete medium comprised of 10% decomplemented fetal bovine serum in RPMI1640 with gentamycin and L-glutamine and grown overnight to confluence. The following day, the media is changed and the wells are treated with test compounds. 10 mM DMSO stock solutions of compounds are serially diluted with 0.1% DMSO (final concentration)-screening media to 5 final concentrations (starting at 10 μM). Compounds are pre-incubated with cells for 30 min followed by stimulation with TNFα (R&D Systems) for 5-6 hr. The adherent cells are then assayed for expression of intercellular adhesion molecule-1 (ICAM-1). Monolayers are washed three times with D-PBS (Gibco) and fixed for 10 min at room temperature with 1% paraformaldehyde (Polysciences, Inc) diluted in D-PBS. After washing to remove fixative, the monolayers are blocked with 2% BSA-D-PBS overnight at 4° C. 100 μL of anti-ICAM-1 mAB RR1-HRP (diluted 1:5000 in 2% BSA-DPBS; Zymed custom conjugate of BIPI mAB) is added for 1 hr at 37° C. Wells are washed three times with D-PBS. 100 μL of ABTS substrate diluted in substrate buffer (Zymed) is added to each well. Optical absorbance is measured at 405 nm in a Thermomax microplate reader ([…]). Data is plotted as percent of control and IC50s are determined using xlfit 4 model # 201.

On to `CCC(F)(F)c1cc(N2CCC(S(C)(=O)=O)CC2)nc2sc(C(N)=O)c(N)c12` [Compound 115, 3-Amino-4-(1,1-difluoro-propyl)-6-(4-methanesulfonyl-piperidin-1-yl)-thieno[2,3-b]pyridine-2-carboxylic acid amide], for which the “level of sustained plasma exposure upon oral administration to rat, versus Compound 100” value in series [1] (comparison in words, Table II) is reported as “improved level of sustained plasma exposure”. For the same compound, in series [1], the concentration at 2 h worked out at 1.59 µM, the concentration at 6 h turned out to be 0.78 µM and the concentration at 10 h worked out at 0.65 µM. Besides, the “oral activity in a rat model of collagen induced arthritis” value in series [2] (comparison in words, Table III) is recorded as “superior oral activity”. The “Inhibition of paw weight increase” value in series [2] (rat CIA, oral, 10 mg/kg BID) was 44%. This compound also yielded a 50% inhibitory concentration (IC50) at human IKKβ of 26 nM. In addition, in series [3], half-maximal inhibition (IC50) required 700 nM and the “cellular potency relative to the —CF3 group of compound 101” value is “improved cellular potency”.

Take `CCCc1cc(N2CCC(S(C)(=O)=O)CC2)nc2sc(C(N)=O)c(N)c12` [Compound 100, reference compound]: in series [1], the concentration at 2 h came to 0.21 µM, the concentration at 6 h stood at 0.12 µM and the concentration at 10 h is 0.08 µM. For the same compound, the half-maximal inhibitory concentration (IC50) at human IKKβ is 78 nM. Also, in series [3], inhibition was half-maximal at 720 nM (IC50) and the “cellular potency relative to the —CF3 group of compound 101” value is listed as “improved cellular potency”.

As to `CS(=O)(=O)C1CCN(c2cc(C(F)(F)F)c3c(N)c(C(N)=O)sc3n2)CC1` [Compound 101], the IC50 against human IKKβ worked out at 120 nM; in series [3], 3200 nM.
